# Counter-ions that a name gives are not always drawn.
# Experiments:
# cerebellar granule cells [1] = assay: Whole-cell patch clamp of tonic GABA current in cerebellar granule cells; assay type: cell-based, mouse; details: for GABAzine-sensitive current after incubation: 150 μM BAPTA-AM (25 min) or 0.5 μM concanamycin A; for block of GABAzine-sensitive current by anion channel blockers: 100 μM Niflumic acid, DIDS concentration not given
# Description: Brain slices were prepared as described in Rossi et al., 2003. For slice recording, either approximately P28 days old or more than 8 weeks old mice were used. Animals were deeply anesthetized with halothane. After decapitation, the brain was quickly excised from the skull and submerged in ice-cold cutting solution (in mM): 250 Sucrose, 26 NaHCO3, 10 D(+)-Glucose, 4 MgCl2, 3 myo-inositol, 2.5 KCl, 2 Sodium pyruvate, 1.25 NaH2PO4, 0.5 Ascorbic acid 0.1 CaCl2, 1 Kynurenic acid, pH 7.4. All solutions were gas-treated with 95% O2-5% CO2. After trimming both sides of vermis, several parasagittal slices with […] thicknesses containing cerebellar lobes were cut using a microtome (Leica VT 1000) and transferred to extracellular ACSF solution (in mM); 126 NaCl, 24 NaHCO3, 1 NaH2PO4, 2.5 KCl, 2.5 CaCl2, 2 MgCl2, 10 D(+)-Glucose, pH 7.4. Slices were incubated for one hour at least at room temperature.
# For recording, slices were transferred to an electrophysiological recording chamber (RC-26G, Warner Instruments) which is continuously superfused with ASCF (artificial cerebrospinal fluid, sigma) solution (flow rate; 2 ml/min) and controlled by flower controller (Synaptosoft) and a vacuum pump (Charles Austen, model Capex 8C). Slice chamber was mounted on the stage of an upright microscope (Olympus, Japan) and viewed with an ×60 water immersion objective with differential interference contrast and infrared optics. Cellular morphologies were visually identified by Imaging Workbench 6.0 (INDEC Systems, Inc), camera controller (Hamamatsu, C4742-95), and light microscope controller (Olympus, TH4-200). Fluorescence images were viewed with mercury lamp (Olympus, U-RFL-T). Whole cell voltage-clamp recording was made from granular cell somata or Bergmann glial cells mostly located in 2-5 cerebellar lobules
# Pipette resistance for granule cells was typically 10-12 MΩ and pipette was filled with an internal solution containing (in mM) 135 CsCl, 4 NaCl, 0.5 CaCl2, 10 HEPES, 5 EGTA, 2 Mg-ATP, 0.5 Na2-GTP, 10 QX-314, pH adjusted to 7.2 with CsOH (278-285 mOsmol) was used (Rossi, et al., 2003).
# (§1) B6 wildtype, GFAP-GFP and hGFAP-CreERT2 trangenic mice (SPF room, Center for Neural Science, KIST, Seoul, Korea) were anaesthetized by intraperitoneal injection of 2% avertin (20 μl/g, sigma) and placed in a stereotaxic frame (David Kopf instrument). pSicoR-b1shRNA-mCherry or scrambled virus (Macrogen) was stereo-injected into cerebellar cortex at a rate of 0.2 μl/min (total 2 μl) using syringe pump (Harvard apparatus) and 25 μl syringe (Hamilton company). The coordination of injection site was 1.7 mm from the lambda and the depth was 1.5-1.7 mm from the skull.
# The glia-specific CreERT activation was initiated by intraperitoneal injection of tamoxifen for 5 days prior to lentivirus injection (FIG. 4a,b). […] Tamoxifen or sunflower oil were injected intraperitoncally once a day for 5 days before lentivirus injection.
# hBest1 = biological target: T1, hBest1 (Homo sapiens, UniProt O76090); details: cited from earlier work
# T1 sequence (O76090 1-585): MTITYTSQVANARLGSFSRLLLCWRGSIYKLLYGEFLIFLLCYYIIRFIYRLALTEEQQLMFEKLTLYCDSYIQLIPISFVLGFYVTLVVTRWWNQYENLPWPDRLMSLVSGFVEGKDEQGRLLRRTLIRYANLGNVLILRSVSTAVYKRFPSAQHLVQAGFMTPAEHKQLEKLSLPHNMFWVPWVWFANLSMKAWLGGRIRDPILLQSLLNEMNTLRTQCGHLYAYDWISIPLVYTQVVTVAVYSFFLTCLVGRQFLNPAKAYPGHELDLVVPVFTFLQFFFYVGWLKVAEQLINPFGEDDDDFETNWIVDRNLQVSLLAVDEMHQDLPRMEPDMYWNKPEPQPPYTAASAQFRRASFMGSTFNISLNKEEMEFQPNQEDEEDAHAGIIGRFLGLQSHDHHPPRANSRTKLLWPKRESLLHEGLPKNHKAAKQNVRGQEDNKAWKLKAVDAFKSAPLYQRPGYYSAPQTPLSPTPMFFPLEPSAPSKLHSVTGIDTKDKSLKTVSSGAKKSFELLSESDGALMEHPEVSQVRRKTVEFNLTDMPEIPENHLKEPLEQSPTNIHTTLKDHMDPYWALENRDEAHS
# [2] = test system: cell line derived from type-2 astrocytes; details: cited from earlier work
# cerebellar granule cells [3] = assay: Clomeleon imaging of [Cl−]i in cerebellar granule cells (tonic GABA release); assay type: cell-based, mouse; details: bath application of 10 μM
# Description: as §1, with “skull. […]” for “skull.”
# Clomeleon, based on fluorescence resonance energy transfer (FRET), is a genetically-encoded fluorescent indicator for Cl^− in which chloride-sensitive yellow fluroscent protein fused with chloride-insensitive cyan fluorescent protein via a flexible peptide linker (Kuner and Augustine, 2000). […]
# For imaging, two ROIs (Regions of Interest) covering the granule cell layer and the molecular layer were drawn. […] Fluorescence excitation was produced by two consecutive 200 to 500 ms long light pulses at 0.5 Hz and fluorescence emission was alternately collected at each wavelength with a back-illuminated, cooled CCD camera with the on-chip multiplication gain control (Cascade 512B, Photometrics). […]
# Best1 channel = biological target: T2, Best1 channel (Mus musculus, UniProt O88870); assay type: cell-based; details: NPPB and NFA at 100 μM; inward current in GABAc sensor cell
# T2 construct: mBest1 full-length fragment from pGEM-T easy plasmid (6.65 kb, Promega) was subcloned into pcDNA 3.1; expressed in transfected cells; host or cells: HEK293T (ATCC)
# T2 sequence (O88870 1-551 R255K): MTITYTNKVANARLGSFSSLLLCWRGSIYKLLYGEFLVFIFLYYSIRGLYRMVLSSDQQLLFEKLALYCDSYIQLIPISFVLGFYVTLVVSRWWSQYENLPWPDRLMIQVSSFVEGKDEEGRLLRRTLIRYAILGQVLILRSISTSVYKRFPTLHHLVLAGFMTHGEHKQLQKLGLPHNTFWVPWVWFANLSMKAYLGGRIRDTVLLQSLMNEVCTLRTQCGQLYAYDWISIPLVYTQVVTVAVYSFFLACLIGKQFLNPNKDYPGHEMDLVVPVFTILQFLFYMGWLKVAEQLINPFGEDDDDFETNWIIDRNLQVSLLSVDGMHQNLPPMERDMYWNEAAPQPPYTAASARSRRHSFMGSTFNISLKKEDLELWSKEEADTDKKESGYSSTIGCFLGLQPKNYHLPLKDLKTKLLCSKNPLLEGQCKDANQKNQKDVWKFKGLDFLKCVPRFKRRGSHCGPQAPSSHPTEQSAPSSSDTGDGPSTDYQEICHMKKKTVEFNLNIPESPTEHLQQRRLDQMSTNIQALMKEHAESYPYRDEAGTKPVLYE
# Description: For Best1 channel to mediate release of GABA, it has to permeate GABA upon channel opening. To test for GABA permeability of Best1 channel, a two-cell sniffer patch technique was developed to directly measure GABA release via Best1 channel in sensor HEK293T cells that express GABAc, and via other channels that are expressed in source HEK293T cells (FIG. 1b).
# pIRES-Best1-dsRED plasmid (obtained by cloning Best1 using pIRES-dsRED (Invitrogen)) and GABAc with GFP (obtained by cloning GABAc using pcDNA3.1 (Invitrogen)) were transfected into HEK 293T cells (ATCC) using Effectene transfection reagent (Qiagen). […]
# GABA release was induced by a break-though of membrane patch that goes into a whole-cell configuration in the source cell and such the released GABA was monitored and detected by a neighboring sensor cell. Full activation of GABA current was obtained by bath application of 100 μM GABA and the percentage of full activation was calculated (FIGS. 1c and 1d).
# Permeated GABA is detected in sensor as an inward current (bottom traces). […] The GABA permeability of said mutant was determined by using cells obtained by transfecting said mutant into HEK293t cell (ATCC). […] The GABA permeability of said AN01 was determined by using cells obtained by transfecting said mutant into HEK293t cell (ACTT).
# GABAc receptors = assay: Patch clamp of GABAc expressing HEK293 cells challenged with 100 μM GABA; assay type: cell-based; details: 100 μM GABA in absence or presence of 100 μM NFA and 100 μM NPPB
# Description: FIGS. 7a and 7b show the results when GABAc expressing HEK293 cells were patch clamped and challenged with 100 μM GABA in the absence and presence of 100 μM NFA and 100 μM NPPB; and
# In FIGS. 7a and 7b, GABAc expressing HEK293 cells were patch clamped and challenged with 100 μM GABA in the absence or presence of 100 μM NFA and 100 μM NPPB.
smiles,measurement,setting,value
"CC(=O)OCOC(=O)CN(CC(=O)OCOC(C)=O)c1ccccc1OCCOc1ccccc1N(CC(=O)OCOC(C)=O)CC(=O)OCOC(C)=O [BAPTA-AM, 1,2-Bis(2-aminophenoxy)ethane-N,N,N′,N′-tetraacetic acid tetrakis(acetoxymethyl ester)]",GABAzine-sensitive current after incubation,cerebellar granule cells [1],significantly reduced
"O=S(=O)(O)c1cc(N=C=S)ccc1C=Cc1ccc(N=C=S)cc1S(=O)(=O)O [DIDS, 4,4′-diisothiocyanatostilbene-2,2′-disulfonic acid]",block of hBest1 Cl− channel,hBest1,readily blocked
same,sensitivity of P2X7-induced [3H]-GABA release to inhibitors,[2],sensitive
same,block of GABAzine-sensitive current by anion channel blockers,cerebellar granule cells [1],blocked the GABAzine-sensitive current significantly
"COc1ccc(-c2ccc(=N)n(CCCC(=O)O)n2)cc1 [GABAzine, SR95531 hydrobromide]",[Cl−]i in granular cell bodies and parallel fibers,cerebellar granule cells [3],markedly decreased
same,GABAzine-sensitive current,"cerebellar granule cells [1]; naïve mice, holding −60 mV",35.68±4.05 pA
"O=C(O)c1cccnc1Nc1cccc(C(F)(F)F)c1 [NFA, Niflumic acid]",GABA release via Best1,Best1 channel,completely abolished
same,GABA response of GABAc expressing HEK293 cells,GABAc receptors,do not have significant impact
same,block of hBest1 Cl− channel,hBest1,readily blocked
same,block of GABAzine-sensitive current by anion channel blockers,cerebellar granule cells [1],blocked the GABAzine-sensitive current significantly
"CC(=O)Nc1ccc(C=Cc2ccc(N=C=S)cc2S(=O)(=O)O)c(S(=O)(=O)O)c1 [SITS, 4-acetamido-4′-isothiocyanostilbene-2,2′-disulphonic acid]",sensitivity of P2X7-induced [3H]-GABA release to inhibitors,[2],sensitive
CC/C(=C(\c1ccccc1)c1ccc(OCCN(C)C)cc1)c1ccccc1 [Tamoxifen],NPPB-sensitive current,"cerebellar granule cells [1]; hGFAP-CreERT2 mice with Tamoxifen and Best1-shRNA lentivirus, naïve 18.95±2.47 pA",19.27±2.2 pA
same,GABAzine-sensitive current,"cerebellar granule cells [1]; hGFAP-CreERT2 mice, tamoxifen i.p. 5 days, then Best1-shRNA lentivirus (glia-specific rescue)",31.31±2.19 pA
C/C=C/[C@H]1O[C@@](O)([C@@H](C)[C@H](O)[C@H](C)[C@H]2OC(=O)/C(OC)=C/C(C)=C/[C@@H](C)[C@@H](O)[C@@H](CC)[C@@H](O)[C@H](C)C/C(C)=C/C=C/[C@@H]2OC)C[C@@H](O[C@H]2C[C@@H](O)[C@H](OC(N)=O)[C@@H](C)O2)[C@@H]1C [concanamycin A],GABAzine-sensitive current after incubation,cerebellar granule cells [1],did not have such affect

# — patent US9095535B2, “GABA release-regulating agent in cerebellum” (KOREA INSTITUTE OF SCIENCE AND TECHNOLOGY, priority 2009, dated 2015)
